Data as given in patent US6914045B2, “Glycopeptide antibiotics” (Wyeth Holdings Corporation, priority 2001, dated 2005).
Converted amounts (≈) assume the structure as drawn.

Legend:
Assay in all cases: in vitro antibacterial evaluation, MIC by broth dilution
Format in all cases: cell-based
Enterococcus sp. = settings: broth dilution, 18 hours at 35° C.; for MIC Enterococcus faecalis (ATCC 29212): strain ATCC 29212; for MIC Enterococcus faecium (GC 2243): strain GC 2243; for MIC Enterococcus faecalis (GC 4554): strain GC 4554; for MIC Enterococcus faecium (GC 4556): strain GC 4556; for MIC Enterococcus faecium (GC 4557): strain GC 4557; for MIC Enterococcus avium (GC 4558): strain GC 4558; for MIC Enterococcus faecalis (GC 6189): strain GC 6189
Summary of the method: (§1)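 Broth dilution per NCCLS standard M7-A2 in Muller-Hinton II […], with an inoculum of 5×10^5 CFU/mL and antibiotic spanning 64-0.06 μg/mL. The MIC is the lowest concentration that inhibits growth of the organism.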

Escherichia coli = tested on: Escherichia coli
Summary of the method: as §1

Staphylococcus sp. = settings: broth dilution, 18 hours at 35° C.
Summary of the method: as §1

Streptococcus sp. = settings: broth dilution, 18 hours at 35° C.
Summary of the method: as §1

CC(c1ccccc1)C1NC(=O)CNC(=O)C(CO)NC(=O)C(C(O)C2CNC(=N)N2C2OC(CO)C(O)C(O)C2O)NC(=O)C(C(O)C2CNC(=NC(=O)C(C)(C)C)N2)NC(=O)C(Cc2ccc(OC3OC(CO)C(OC4OC(CO)C(O)C(O)C4O)C(O)C3O)cc2)NC1=O (stereo not shown) [Example 155]
MIC Enterococcus faecalis (GC 2242) (Enterococcus sp.; Enterococcus faecalis (GC 2242)): 0.5 to 1 µg/mL
MIC Enterococcus faecalis (GC 2691) (Enterococcus sp.; Enterococcus faecalis (GC 2691)): 0.5 µg/mL (≈ 0.362 µM)
MIC Enterococcus faecalis (GC 3059) (Enterococcus sp.; Enterococcus faecalis (GC 3059)): 0.5 µg/mL (≈ 0.362 µM)
MIC Enterococcus faecalis (ATCC 29212) (Enterococcus sp.; inoculum 5×10^5 CFU/mL): 0.5 to 1 µg/mL
MIC Enterococcus faecium (GC 2243) (Enterococcus sp.; inoculum 5×10^5 CFU/mL): <0.5 to 1 µg/mL
MIC Enterococcus faecalis (GC 4554) (Enterococcus sp.; inoculum 5×10^5 CFU/mL): 0.5 to 1 µg/mL
MIC Enterococcus faecium (GC 4556) (Enterococcus sp.; inoculum 5×10^5 CFU/mL): 1 to 2 µg/mL
MIC Enterococcus faecium (GC 4557) (Enterococcus sp.; inoculum 5×10^5 CFU/mL): 1 to 2 µg/mL
MIC Enterococcus avium (GC 4558) (Enterococcus sp.; inoculum 5×10^5 CFU/mL): 0.5 to 1 µg/mL
MIC Enterococcus faecalis (GC 6189) (Enterococcus sp.; inoculum 5×10^5 CFU/mL): 0.5 µg/mL (≈ 0.362 µM)
MIC Enterococcus faecalis (ATCC 29212) (Enterococcus sp.): 0.5 to 1 µg/mL
MIC Enterococcus faecalis (GC 2242) (Enterococcus sp.; strain GC 2242): 0.5 to 1 µg/mL
MIC Enterococcus faecium (GC 2243) (Enterococcus sp.): <0.5 to 1 µg/mL
MIC Enterococcus faecalis (GC 2691) (Enterococcus sp.; strain GC 2691): 0.5 µg/mL (≈ 0.362 µM)
MIC Enterococcus faecalis (GC 3059) (Enterococcus sp.; strain GC 3059): 0.5 µg/mL (≈ 0.362 µM)
MIC Enterococcus faecalis (GC 4554) (Enterococcus sp.): 0.5 to 1 µg/mL
MIC Enterococcus faecium (GC 4556) (Enterococcus sp.): 1 to 2 µg/mL
MIC Enterococcus faecium (GC 4557) (Enterococcus sp.): 1 to 2 µg/mL
MIC Enterococcus avium (GC 4558) (Enterococcus sp.): 0.5 to 1 µg/mL
MIC Enterococcus faecalis (GC 6189) (Enterococcus sp.): 0.5 µg/mL (≈ 0.362 µM)
MIC Escherichia coli (ATCC 25922) (Escherichia coli; strain ATCC 25922, 18 hours at 35° C.): >64 µg/mL
MIC Escherichia coli (GC 4559) (Escherichia coli; strain GC 4559, 18 hours at 35° C.): >64 µg/mL
MIC Escherichia coli (GC 4560) (Escherichia coli; strain GC 4560, 18 hours at 35° C.): 0.5 to 2 µg/mL
MIC Staphylococcus aureus (GC 3051) (Staphylococcus sp.; strain GC 3051): 0.5 µg/mL (≈ 0.362 µM)
MIC Staphylococcus aureus (GC 3053) (Staphylococcus sp.; strain GC 3053): 0.5 µg/mL (≈ 0.362 µM)
MIC Staphylococcus aureus (GC 4545) (Staphylococcus sp.; strain GC 4545): 0.5 to 1 µg/mL
MIC Staphylococcus haemolyticus (GC 4546) (Staphylococcus sp.; strain GC 4546): <0.5 to 1 µg/mL
MIC Coagulase Negative Staphylococcus (GC 4547) (Staphylococcus sp.; strain GC 4547): <0.5 to 2 µg/mL
MIC Coagulase Negative Staphylococcus (GC 4548) (Staphylococcus sp.; strain GC 4548): <0.5 to 1 µg/mL
MIC Coagulase Negative Staphylococcus (GC 4549) (Staphylococcus sp.; strain GC 4549): <0.5 to 1 µg/mL
MIC Coagulase Negative Staphylococcus (GC 4551) (Staphylococcus sp.; strain GC 4551): <0.5 to 1 µg/mL
MIC Coagulase Negative Staphylococcus (GC 6257) (Staphylococcus sp.; strain GC 6257): 1 µg/mL (≈ 0.725 µM)
MIC Coagulase Negative Staphylococcus (ID-3941) (Staphylococcus sp.; strain ID-3941): <0.5 µg/mL
MIC Streptococcus agalactiae (GC 4564) (Streptococcus sp.; Streptococcus agalactiae (GC 4564)): <0.12 µg/mL
MIC Streptococcus pneumoniae (ATCC 6301) (Streptococcus sp.; Streptococcus pneumoniae (ATCC 6301)): 0.12 µg/mL (≈ 0.087 µM)
MIC Streptococcus pneumoniae (GC 1894) (Streptococcus sp.; Streptococcus pneumoniae (GC 1894)): 0.12 µg/mL (≈ 0.087 µM)
MIC Streptococcus pyogenes (GC 4563) (Streptococcus sp.; Streptococcus pyogenes (GC 4563)): >0.12 µg/mL
MIC Streptococcus pyogenes (ID-3187) (Streptococcus sp.; Streptococcus pyogenes (ID-3187)): <0.5 µg/mL
MIC Streptococcus pneumoniae (ATCC 6301) (Streptococcus sp.; strain ATCC 6301): 0.12 µg/mL (≈ 0.087 µM)
MIC Streptococcus pneumoniae (GC 1894) (Streptococcus sp.; strain GC 1894): 0.12 µg/mL (≈ 0.087 µM)
MIC Streptococcus pyogenes (GC 4563) (Streptococcus sp.; strain GC 4563): >0.12 µg/mL
MIC Streptococcus agalactiae (GC 4564) (Streptococcus sp.; strain GC 4564): <0.12 µg/mL
MIC Streptococcus pyogenes (ID-3187) (Streptococcus sp.; strain ID-3187): <0.5 µg/mL
